Results on 16 compounds are retold here after patent US20040115160A1, “Quaternary ammonium esters for disinfection and preservation” (priority 2002, published 2004).

Structures can show the parent of a compound that is named as a salt.

The test system of series [1] is Acanthamoeba polyphaga strain Ros cysts. The experiment in a line: Acanthamoeba contact lens disinfectant challenge test assay. To be noted: 25 ppm. The class given is cell-based. As to the method: Acanthamoeba polyphaga strain Ros were used in this study. Trophozoites were maintained at 30° C. in an axenic broth medium composed of 20.0 g Biosate™ (Becton Dickinson, United Kingdom), 5.0 g glucose, 0.3 g KH2PO4, 10 μg vitamin B12 and 15.0 mg L-methionine per litre of deionized water. The pH was adjusted to 6.5-6.6 with 1 M NaOH before autoclaving at 121° C. for 12 minutes. Penicillin and streptomycin were added to a final concentration of 150 μ/ml before use.
Cysts were prepared from trophozoite cultures using the axenic medium supplemented with 50 mM MgCl2. The encystment medium was inoculated with approximately 2×10^5 /ml trophoxoites for culture at 30° C. in a shaking incubator (100 rpm) for 7 days. Cells were enumerated using haemocytometer counting.
The challenge test assay protocol, as described by R. Hughes and S. Kilvington, Comparison of Hydrogen Peroxide Contact Lens Disinfection Systems and Solutions Against Acanthamoeba Polyphaga, Antimicrob. Agents Chemother. 45: 2038-2043, (2001), is set forth in detail below. The number of surviving organisms was calculated as described by L. J. Reed and H. Muench, A Simple Method for Estimating Fifty Percent Endpoints, Am. J. Hyg., 27: 493-497, (1938). Statistical analysis of the data was by One Way Analysis Of Variance (ANOVA).
1. Fifty ml polypropylene centrifuge tubes were aged overnight with 15 ml of disinfectant solution, i.e., ReNue™ 02 (Bausch & Lomb, Rochester, N.Y.). The tubes were then drained, the disinfectant solution discarded, and refilled with 10 ml of fresh disinfectant solution for testing.
2. To a flat-bottomed, 96 well microtitre plate having 8 columns labelled “A” through “H”, 180 μl of neutralizer, i.e., 0.1 percent Tween™ 80 (Baker, Inc., Phillipsburg, N.J.) in one-quarter strength Ringer's solution for biguanide based disinfectants, was added to the outer wells of columns A and H. 180 μl of one-quarter strength Ringer's solution was then added to the remaining inner wells of columns B through G.
3. Amoebae were adjusted to 5×10^6 /ml in one-quarter strength Ringer's solution and 100 μl (5×10^5) was added to 10 ml of disinfectant (5×10^4 /ml) or saline control.
4. At time intervals of 0, 1, 2, 3, 4, 6 and 24 hours:
i. vortexed tubes 5 seconds;
ii. in quadruplet, removed 20 μl (1000 cells) and added to neutralizer wells for the given time-point (i.e., column A, rows 9-12) and made serial 10-fold dilutions across the microtitre plate (i.e., to column D, rows 9-12); and
iii. repeated for each time point.
5. One drop of live E. coli from 3 ml pastette (25 μl of approximately 5×10^7 bacteria/ml) was then added to each well.
6. The plate was then incubated at 32° C. for up to 7 days.
7. The plate was inspected daily for 7 days for the presence of amoebal growth, either trophozoite replication or excystment and trophozoite replication, in the wells.
8. The number of surviving organisms was then estimated at each time interval by Reed and Muench computation and set forth below in Table 3.

The term melting point denotes the temperature, or range, at which the solid turns liquid. Compound `CCCCCCCCCCCC(=O)OCCC[N+](C)(C)C` (as salt: iodide) [Compound 4, N-lauroyloxypropyl-N,N,N-trimethylammonium iodide] displayed a melting point of 121 to 124 °C. `CCCCCCCCCCCCCC(=O)OCCC[N+](C)(C)C` (as salt: iodide) [Compound 5, N-myristoyloxypropyl-N,N,N-trimethylammonium iodide]: the melting point was 118 to 120 °C. Same read-out and setting: the value for `CCCCCCCCCCCCCCCC(=O)OCCC[N+](C)(C)C` (as salt: iodide) [Compound 6, N-palmitoyloxypropyl-N,N,N-trimethylammonium iodide] was 116 to 118 °C; that for `CCCCCCCCCCCCCCCCCC(=O)OCCC[N+](C)(C)C` (as salt: iodide) [Compound 7, N-stearoyloxypropyl-N,N,N-trimethylammonium iodide] was 116 to 118 °C.

In the case of `CCCCCCCCCCCCCC(=O)OCCC[N+](C)(C)CC` (as salt: iodide) [Compound 8, N-myristoyloxypropyl-N,N-dimethyl-N-ethylammonium iodide], the melting point is 60 to 62 °C. In turn, `CCCCCCCCCCCCCC(=O)OCCC[N+](C)(C)CCC` (as salt: iodide) [Compound 9, N-myristoyloxypropyl-N,N-dimethyl-N-propylammonium iodide] displayed a melting point of 80 to 82 °C. In turn, `CCCCCCCCCCCCCC(=O)OCCC[N+](C)(C)CCCC` (as salt: iodide) [Compound 10, N-myristoyloxypropyl-N-butyl-N,N-dimethylammonium iodide] returned a melting point of 87 to 89 °C. Take `CCCCCCCCCCCCCC(=O)OCCC[N+](C)(C)CCCCC` (as salt: iodide) [Compound 11, N-myristoyloxypropyl-N,N-dimethyl-N-pentylammonium iodide]: the melting point fell in the range of 90 to 91 °C. `CCCCCCCCCCCCCC(=O)OCCC[N+](C)(C)CCCCCC` (as salt: iodide) [Compound 12, N-myristoyloxypropyl-N,N-dimethyl-N-hexylammonium iodide] returned a melting point of 78 to 79 °C.

`CCCCCCCCCCCCCC(=O)OCCC[N+](C)(C)CCCCCCCCCC` (as salt: iodide) [Compound 13, N-myristoyloxypropyl-N-decyl-N,N-dimethylammonium iodide] gave a melting point of 103 to 104 °C. `CCCCCCCCCCCCCC(=O)OCCOCC[N+](C)(C)C` (as salt: iodide) [Compound 15, N-myristoyloxyethoxyethyl-N,N,N-trimethylammonium iodide] had a melting point of 92 to 94 °C. Consider `CCCCCCCCCCCCCCCC(=O)OCCC[N+](C)(C)C` [Compound 6, N-palmitoyloxypropyl-N,N,N-trimethylammonium iodide], for which the “Amoebae Log Kill, Cysts” value in series [1] (1 Hr.) is 0.46 Log; in series [1] (4 Hr.), 3.54 Log. For the compound `CCCCCCCCCCCCCC(=O)OCCC[N+](C)(C)CC` [Compound 8, N-myristoyloxypropyl-N,N-dimethyl-N-ethylammonium iodide], the “Amoebae Log Kill, Cysts” value in series [1] (1 Hr.) is reported as 1 Log; in series [1] (4 Hr.), 4 Log.

For the compound `CCCCCCCCCCCCCC(=O)OCCC[N+](C)(C)CCC` [Compound 9, N-myristoyloxypropyl-N,N-dimethyl-N-propylammonium iodide], the “Amoebae Log Kill, Cysts” value in series [1] (1 Hr.) is 3.69 Log; in series [1] (4 Hr.), 4 Log.

Take `CCCCCCCCCCCCCC(=O)OCCC[N+](C)(C)CCCCC` [Compound 11, N-myristoyloxypropyl-N,N-dimethyl-N-pentylammonium iodide]: the “Amoebae Log Kill, Cysts” value in series [1] (1 Hr.) and in series [1] (4 Hr.) was 3.69 Log throughout. For the compound `CCCCCCCCCCCCCC(=O)OCCC[N+](C)(C)CCCCCC` [Compound 12, N-myristoyloxypropyl-N,N-dimethyl-N-hexylammonium iodide], the “Amoebae Log Kill, Cysts” value in series [1] (1 Hr.) and in series [1] (4 Hr.) was 3.54 Log in each case.
